Experiments:
Format in all cases: cell-based, human
TRAC = assay: Lipid screen in activated B cells: percent editing by NGS, Example 23.3; settings: LNPs formulated with the named ionizable lipid, 5 μg/ml
Experimental: A leukopak from a healthy human donor was obtained commercially (Hemacare) and B cells were isolated by CD19 positive selection using the StraightFrom Leukopak CD19 MicroBead kit (Miltenyi, 130-117-021) on a MultiMACS Cell24 Separator Plus instrument. Following MACS isolation, CD19+ B cells were activated in B Cell Media 3 or B Cell Media 7, each supplemented with 100 ng/ml MEGACD40L. […] LNPs were generally prepared as Example 1 using the ionizable and PEG lipids described in Table 68 with the lipid composition expressed as the molar ratio of ionizable lipid/cholesterol/DSPC/PEG, respectively.
Editing was more efficient in B cells cultured in StemSpan compared to IMDM.

B2M [1] = assay: B2M editing by NGS in T cells with different ionizable lipid formulations (Lipid A, Lipid B), Example 7; settings: LNPs formulated with the named ionizable lipid
Experimental: LNPs formulated with different ionizable lipids were tested for T cell delivery efficacy. T cells were prepared, thawed and activated as in Example 5. Forty-eight hours post activation, T cells were treated with LNPs delivering Cas9 mRNA and gRNA G000529 (SEQ ID NO: 701) targeting B2M. LNPs were generally prepared as Example 1. Lipid A formulations were prepared at a ratio of 50/9/38/3 ionizable Lipid A, cholesterol, DSPC, and PEG2k-DMG. Lipid B compositions were formulated at a ratio of 50/10/38.5/1.5 ionizable lipid nonyl 8-((8,8-bis(octyloxy)octyl)(2-hydroxyethyl)amino)octanoate, cholesterol, DSPC, and PEG2k-DMG.

TRBC [2] = assay: CD3 negative cells after treating non-activated T cells with LNPs preincubated with ApoE3, ApoE4 or ApoA1, Example 19
Experimental: Healthy human donor leukopak was obtained commercially (Hemacare) and T cells were isolated by CD4/CD8 positive selection using the StraightFrom® Leukopak® CD4/CD8 MicroBeads (Miltenyi, Catalog, 130-122-352) following the manufacturer's protocol on MultiMACS Cell24 Separator Plus instrument.
Upon thaw, T cells were cultured in complete T cell media: T cell base media composed of XVIVO-15 media (Fisher, BE02-060Q), 1% Pen-Strep (Corning, 30-002-CI), 50 uM beta-mercaptoethanol, and N-Acetyl L-Cysteine (Fisher, ICN19460325), which was further supplemented with 5% human AB serum (Gemini Bio Products, 100-512), 200 U/mL IL-2 (Peprotech, 200-02), 5 ng/mL IL7 (Peprotech, 200-07), 5 ng/mL IL-15 (Peprotech, 200-15)). At this stage, a portion of cells were activated by addition of 1:100 dilution of TransAct (Miltenyi Biotech, Catalog #130-111-160). All cells were cultured at 37 C for 48 hours.
LNPs were generally prepared as Example 1 with the lipid composition of 50/9/39.5/1.5, expressed as the molar ratio of ionizable lipid A/cholesterol/DSPC/PEG, respectively.
Briefly, T cells were incubated in antibody targeting CD3 (Biolegend, 300441). Cells were subsequently washed, analyzed on a CytoFLEX S instrument (Beckman Coulter) using the FlowJo software package. T cells were gated on size and CD3 expression.

TRBC [3] = assay: CD3 negative cells after treating activated T cells with LNPs preincubated with ApoE3, ApoE4 or ApoA1, Example 19
Experimental: All cells were cultured at 37 C for 48 hours. 100,000 T cells were resuspended in complete T cell media without human serum for 15-30 min prior to LNP transfection.
Cells were washed 48 hr post LNP treatment with T cell media to wash and replaced with fresh complete T cell media.
Five days post LNP treatment, T cells were phenotyped by flow cytometry to determine CD3 protein surface expression. […] Cells were subsequently washed, analyzed on a CytoFLEX S instrument (Beckman Coulter) using the FlowJo software package. T cells were gated on size and CD3 expression.

B2M locus = assay: Insertion into B cells with LNP and AAV6: GFP positive and B2M negative cells, Example 26; settings: Day 7 post-treatment; LNP with the named ionizable lipid 5 μg/ml plus AAV6
Experimental: B cells were isolated as Example 23.3. and were activated in B cell media 9 as described in Table 64, supplemented with 1 ng/ml MEGACD40L. Two days following activation, B cells were treated with LNPs delivering mRNA encoding Cas9 (SEQ ID NO. 6) and gRNA G000529 (SEQ ID NO: 701) targeting the B2M locus as well as with AAV6 for GFP template insertion into the B2M locus (SEQ ID NO. 722) driven by the EF1α promoter. LNPs were generally prepared as described in Example 1 using Lipid A and Lipid D as the ionizable lipids with the lipid composition of 50/10/38.5/1.5, expressed as the molar ratio of ionizable lipid/cholesterol/DSPC/PEG, respectively.
B cells were phenotyped for GFP expression on Day 7. For B cell phenotyping by flow cytometry, B cells were stained with antibodies targeting CD19 (Biolegend, 302218), CD20 (Biolegend, 302322), CD86 (Biolegend, 374216) and B2M (Biolegend, 316312). Cells were subsequently stained with a viability dye (Biolegend, 422801), washed, and processed on a Cytoflex instrument (Beckman Coulter). Results were analyzed using the FlowJo software package. B cells were gated based on size and viability, followed by GFP expression on the total live population.

B2M [4] = assay: B2M negative B cells after LNPs preincubated with ApoE3 or ApoE4, Example 23.4; settings: LNPs formulated with the named ionizable lipid
Experimental: B cells (Hemacare) were thawed and activated in Stemspan SFEM media with 1 ug/ml CpG ODN 2006 (Invivogen, cat. tlrl-2006-1), 50 ng/ml IL-2 (Peprotech, cat. 200-02), 50 ng/ml IL-10 (Peprotech, cat. 200-10), 10 ng/ml IL-15 (Peprotech, cat. 200-15), 1 ng/ml MegaCD40L (Enzo Life Sciences, cat. ALX-522-110-0000), 1% penicillin-streptomycin and 5% human AB serum. B cells were considered activated in the presence of 1 ng/mL MegaCD40L (Enzo Life Sciences, cat. ALX-522-110-0000) and 1 ug/mL CpG ODN 2006 (Invivogen, cat. tlrl-2006-1). Two days following activation, B cells were treated with LNPs delivering Cas9 mRNA and gRNA G000529 (SEQ ID NO: 701) targeting B2M. LNPs were generally prepared as Example 1 using the ionizable lipids described in Table 69 with the lipid composition of 50/10/38.5/1.5, expressed as the molar ratio of ionizable lipid/cholesterol/DSPC/PEG, respectively. […] Five days post LNP treatment, cells were phenotyped by flow cytometry. Briefly, B cells were incubated with antibodies targeting B2M (Biolegend, cat. 395806), CD19 (Biolegend, cat. 302205), CD20 (Biolegend, cat. 302322), CD86 (Biolegend cat. 305420). Cells were subsequently washed in DAPI (Thermo Fisher, cat. D1306) diluted 1:3703 in PBS, processed on a Cytoflex instrument (Beckman Coulter) and analyzed using the FlowJo software package. B cells were gated on size, singlets, and live cells.

B2M [5] = assay: Percent editing by NGS in monocytes and macrophages with Lipid A or Lipid D LNPs, Example 34; settings: LNP formulations with the named lipid; Day 0 and Day 5 post thaw
Experimental: CD14+ cells were isolated as in Example 31 and frozen for future use. CD14+ cells were thawed and cultured in triplicate at 100,000 cells/well in OpTmizer base media as described in Table 2 with 10 ng/mL GM-CSF (Stemcell, 78140.1) on non-tissue culture plates (Falcon, 351172) for ease of detachment. Cells were treated with LNPs delivering mRNA encoding Cas9 (SEQ ID NO. 6) and gRNA G000529 (SEQ ID NO. 701) targeting B2M. For monocytes, LNP addition occurred on the same day as plating on tissue culture plates. […] LNPs were generally prepared as Example 1 using the ionizable lipids indicated in Tables 84 and 85 with the lipid composition of 50/10/38.5/1.5, expressed as the molar ratio of ionizable lipid/cholesterol/DSPC/PEG, respectively. […] The pre-incubated LNPs were added to cells in 1:1 v/v ratio, yielding a final total RNA cargo dose of 2.5 ug/mL or 5 ug/mL.
Briefly, cells were incubated with antibodies targeting CD68, CD11b and HLA-ABC (Biolegend, 311432) as generally as described in Example 31. HLA-ABC targeting antibody was used in place of B2M. Cells were subsequently washed, processed on a Cytoflex instrument (Beckman Coulter) and analyzed using the FlowJo software package. Cells were gated on size, CD68+, CD11b+ followed by HLA-ABC− population. NGS editing data is shown is Table 85. […] Editing was also observed when cells were cultured in RPMI or XVIVO-15 media.

AAVS1 [6] = assay: Percent editing at AAVS1 by NGS in NK cells with DNAPK inhibitors, Example 29; settings: LNP 10 ug/ml total RNA cargo, seven days post LNP treatment
Experimental: (§1) Human primary NK cells were activated and expanded using K562-41BBL cells as feeder cells in OpTmizer media with 5% human AB serum, 500 U/mL IL-2, and 5 ng/ml IL-15 for 3 days. NK cells were plated at 50,000 cells per well in triplicate in OpTmizer media supplemented as described above with DNAPKi at concentrations indicated in Tables 78 and 79. […] The pre-incubated LNPs were added to NK cells suspended in the same media at a final concentration of 10 ug/ml of total RNA cargo in triplicate. For a subset of samples, AAV encoding GFP flanked by regions homologous to the AAVS1 edit site were added at a multiplicity of infection (MOI) of 600,000 genome copies following editing.

AAVS1 [7] = assay: GFP insertion (GFP++) in NK cells with LNP, AAV and DNAPK inhibitors, Example 29; settings: LNP 10 ug/ml, seven days following editing
Experimental: as §1

[8] = Apo protein 0.08 ug/mL, Biological Replicate1, LNP 4 ug/mL
[9] = Apo protein 0.08 ug/mL, Biological Replicate2, LNP 4 ug/mL
[10] = Apo protein 1.25 ug/mL, Biological Replicate1, LNP 4 ug/mL
[11] = Apo protein 1.25 ug/mL, Biological Replicate2, LNP 4 ug/mL
[12] = Apo protein 5.00 ug/mL, Biological Replicate1, LNP 4 ug/mL
[13] = Apo protein 5.00 ug/mL, Biological Replicate2, LNP 4 ug/mL
[14] = Apo protein 10.00 ug/mL, Biological Replicate1, LNP 4 ug/mL
[15] = Apo protein 10.00 ug/mL, Biological Replicate2, LNP 4 ug/mL

`CCCCCCCCCOC(=O)CCCCCCCN(CCO)CCCCCCC(OCCCCCCCC)OCCCCCCCC` [Lipid C] was tested, and the “editing in activated B cells by NGS, in words” value (TRAC) was “Efficient editing was evident”.
For `CCCCCCCCCOC(=O)CCCCCCCN(CCO)CCCCCCCC(OCCCCCCCC)OCCCCCCCC` [Lipid B, nonyl 8-((8,8-bis(octyloxy)octyl)(2-hydroxyethyl)amino)octanoate], the “B2M editing in T cells by NGS, in words” value (B2M [1]) was “Efficient editing was evident”.
With “ApoA1: Recombinant Human ApoA1 used to preincubate LNPs” the “Percent CD3 negative cells” value (TRBC [2]; [8]) was 4.2%, the “Percent CD3 negative cells” value (TRBC [2]; [9]) was 6.2% and the “Percent CD3 negative cells” value (TRBC [2]; [10]) was 4.7%. For the same compound, the “Percent CD3 negative cells” value (TRBC [2]; [11]) was 4.2%, the “Percent CD3 negative cells” value (TRBC [2]; [12]) was 6.1% and the “Percent CD3 negative cells” value (TRBC [2]; [13]) was 4.8%. For the same compound, the “Percent CD3 negative cells” value (TRBC [2]; [14]) was 5.4%, the “Percent CD3 negative cells” value (TRBC [2]; [15]) was 3.8% and the “editing (CD3 negative cells) with LNPs preincubated with Apo protein, in words” value (TRBC [2]; Apo protein 0.08-10 ug/mL) was “none of the tested concentrations of ApoA1 protein led to efficient editing”. The “Percent CD3 negative cells” value (TRBC [3]; [8]) was 2.9%, the “Percent CD3 negative cells” value (TRBC [3]; [9]) was 2.5% and the “Percent CD3 negative cells” value (TRBC [3]; [10]) was 2.8%. For the same compound, the “Percent CD3 negative cells” value (TRBC [3]; [11]) was 3.0%, the “Percent CD3 negative cells” value (TRBC [3]; [12]) was 2.5% and the “Percent CD3 negative cells” value (TRBC [3]; [13]) was 3.2%. The “Percent CD3 negative cells” value (TRBC [3]; [14]) was 3.6%, the “Percent CD3 negative cells” value (TRBC [3]; [15]) was 3.6% and the “editing (CD3 negative cells) with LNPs preincubated with Apo protein, in words” value (TRBC [3]; Apo protein 0.08-10 ug/mL) was “none of the tested concentrations of ApoA1 protein led to efficient editing”.
In the case of `CCCCC/C=C\C/C=C\CCCCCCCC(=O)OCC(COC(=O)CCC(OCCCCCCCC)OCCCCCCCC)COC(=O)OCCCN(CC)CC` (stereo not shown) [Lipid A, (9Z,12Z)-3-((4,4-bis(octyloxy)butanoyl)oxy)-2-((((3-(diethylamino)propoxy)carbonyl)oxy)methyl)propyl octadeca-9,12-dienoate], the “B2M editing in T cells by NGS, in words” value (B2M [1]) is reported as “Efficient editing was evident”, the “percentage of B cells expressing GFP” value (B2M locus) is reported as 29.5% and the “editing in activated B cells by NGS, in words” value (TRAC) is reported as “Efficient editing was evident”. For the same compound, the “B2M negative B cells, in words” value (B2M [4]) was “increased percentage of B2M negative cells” and the “editing in monocytes and macrophages, in words” value (B2M [5]) was “showed effective editing”.
`CCCCCCCCCOC(=O)CCCCCCCN(CCO)CCCCCCC(OCCCCCCCC)OCCCCCCCC` [Lipid D] was tested, and the “percentage of B cells expressing GFP” value (B2M locus) was 14.5%, the “B2M negative B cells, in words” value (B2M [4]) was “increased percentage of B2M negative cells” and the “editing in monocytes and macrophages, in words” value (B2M [5]) was “showed effective editing”.
With `Cc1cc2ncnn2cc1Nc1ncc2c(n1)n(C1CCC3(CC1)CC3)c(=O)n2C` [Compound 4, 7-methyl-2-((7-methyl-[1,2,4]triazolo[1,5-a]pyridin-6-yl)amino)-9-(spiro[2.5]octan-6-yl)-7,9-dihydro-8H-purin-8-one] the “Mean percent editing at AAVS1” value (AAVS1 [6]; DNAPKi 0.125 uM) was 96.77%, the “Mean percent editing at AAVS1” value (AAVS1 [6]; DNAPKi 0.5 uM) was 97.67% and the “Mean percent editing at AAVS1” value (AAVS1 [6]; DNAPKi […]) was 97.37%. The “Percent of NK cells with high GFP expression, Mean” value (“Percent of NK cells” for short) (AAVS1 [7]; AAV MOI 600,000, DNAPKi 0.125 uM) was 88.10%, the “Percent of NK cells” value (AAVS1 [7]; AAV MOI 600,000, DNAPKi 0.5 uM) was 90.27% and the “Percent of NK cells” value (AAVS1 [7]; AAV MOI 600,000, DNAPKi […]) was 90.63%.
